These are literature values, as cited in patent US5998416A, “Piperazine, piperidine and tetrahydropyridine derivatives as 5-HT receptor agonists” (Merck Sharp & Dohme Ltd., priority 1996, dated 1999).

The conditions of the data set: therapeutic doses.

With `CNS(=O)(=O)Cc1ccc2[nH]cc(CCN(C)C)c2c1` [sumatriptan], the “adverse cardiovascular events in humans” value was “certain adverse cardiovascular events”.
